Reference: PubChem BioAssay AID248 (DTP/NCI, 2004)
Where “and” joins values, the source holds several entries; their conditions need not be identical. Identical values can stand only once. Toxic doses and inconclusive results are not listed. Cut-off read from the data, not from the text of the source: active = T/C of 150% or more; inactive = T/C below 125%.

Tested on: L1210 leukemia ip in BDF1 mice, survival T/C
Assay: NCI In Vivo Anticancer Drug Screen. Data for tumor model L1210 Leukemia (intraperitoneal) in B6D2F1 (BDF1) mice
Conditions: endpoint: mean survival time, higher = longer survival
Outline: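 Tumor cells were implanted, animals were treated, and survival was followed. The result divides the treated measurement by the vehicle-control measurement.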

[1] = dose: 100.0 mg/kg/injection, schedule: Q01DX001 (ip), vehicle: saline with Tween-80
[2] = dose: 100.0 mg/kg/injection, schedule: Q01DX009 (ip), vehicle: saline with Tween-80
[3] = dose: 100.0 mg/kg/injection, schedule: Q04DX002 (ip), vehicle: saline with Tween-80
[4] = dose: 100.0 mg/kg/injection, schedule: Q04DX003 (ip), vehicle: saline with Tween-80
[5] = dose: 200.0 mg/kg/injection, schedule: Q01DX001 (ip), vehicle: saline with Tween-80
[6] = dose: 200.0 mg/kg/injection, schedule: Q01DX009 (ip), vehicle: saline with Tween-80
[7] = dose: 200.0 mg/kg/injection, schedule: Q04DX003 (ip), vehicle: saline with Tween-80
[8] = dose: 400.0 mg/kg/injection, schedule: Q01DX001 (ip), vehicle: saline with Tween-80
[9] = dose: 400.0 mg/kg/injection, schedule: Q01DX009 (ip), vehicle: saline with Tween-80
[10] = dose: 400.0 mg/kg/injection, schedule: Q04DX003 (ip), vehicle: saline with Tween-80
[11] = dose: 100.0 mg/kg/injection, schedule: Q01DX009 (ip), vehicle: Klucel (hydroxypropylcellulose) (HPC)
[12] = dose: 100.0 mg/kg/injection, schedule: Q04DX002 (ip), vehicle: Klucel (hydroxypropylcellulose) (HPC)
[13] = dose: 200.0 mg/kg/injection, schedule: Q01DX009 (ip), vehicle: Klucel (hydroxypropylcellulose) (HPC)
[14] = dose: 200.0 mg/kg/injection, schedule: Q04DX002 (ip), vehicle: Klucel (hydroxypropylcellulose) (HPC)
[15] = dose: 100.0 mg/kg/injection, schedule: Q01DX001 (ip), vehicle: carboxymethylcellulose (CMC)
[16] = dose: 200.0 mg/kg/injection, schedule: Q01DX001 (ip), vehicle: carboxymethylcellulose (CMC)
[17] = dose: 400.0 mg/kg/injection, schedule: Q01DX001 (ip), vehicle: carboxymethylcellulose (CMC)

Measured: T/C

NS(=O)(=O)c1ccc(NC(=O)Nc2cccc3ccccc23)cc1
inactive: [1] 91 % of control | [2] 101 % of control and 108 % of control | [3] 95 % of control and 100 % of control | [4] 105 % of control | [5] 87 % of control | [6] 93 % of control and 100 % of control | dose: 200.0 mg/kg/injection, schedule: Q04DX002 (ip), vehicle: saline with Tween-80 98 % of control and 100 % of control | [7] 103 % of control | [8] 94 % of control | [9] 96 % of control and 105 % of control | dose: 400.0 mg/kg/injection, schedule: Q04DX002 (ip), vehicle: saline with Tween-80 93 % of control and 96 % of control | [10] 108 % of control

C[N+](C)=Cc1c[nH]c2ccccc12
inactive: dose: 9.38 mg/kg/injection, schedule: Q01DX001 (ip), vehicle: steriod suspending solution 98 % of control | dose: 18.75 mg/kg/injection, schedule: Q01DX001 (ip), vehicle: steriod suspending solution 94 % of control | dose: 37.5 mg/kg/injection, schedule: Q01DX001 (ip), vehicle: steriod suspending solution 98 % of control

CC1(C)N=C(N)N=C(N)N1c1cccc(CCCc2ccccc2)c1
inactive: dose: 1.56 mg/kg/injection, schedule: Q01DX001 (ip), vehicle: saline 98 % of control | dose: 3.12 mg/kg/injection, schedule: Q01DX001 (ip), vehicle: saline 91 % of control | dose: 6.25 mg/kg/injection, schedule: Q01DX001 (ip), vehicle: saline 88 % of control | dose: 25.0 mg/kg/injection, schedule: Q01DX001 (ip), vehicle: saline 89 % of control

OC1(C2CCCCC2)C2CCCC1CCC2 (configuration not stated)
inactive: dose: 100.0 mg/kg/injection, schedule: Q01DX009 (ip), vehicle: other 94 % of control | [4] 99 % of control | dose: 200.0 mg/kg/injection, schedule: Q01DX009 (ip), vehicle: other 94 % of control | [7] 92 % of control | dose: 400.0 mg/kg/injection, schedule: Q01DX009 (ip), vehicle: other 101 % of control | [10] 103 % of control

CS(=O)(=O)OCc1c(O)c2c(c(O)c1COS(C)(=O)=O)C(=O)C=CC2=O
inactive: dose: 25.0 mg/kg/injection, schedule: Q01DX009 (ip), vehicle: water 94 % of control | dose: 50.0 mg/kg/injection, schedule: Q01DX009 (ip), vehicle: water 97 % of control

Cc1nc([N+](=O)[O-])cn1CCN1CCOCC1
inactive: dose: 50.0 mg/kg/injection, schedule: Q01DX009 (ip), vehicle: Klucel (hydroxypropylcellulose) (HPC) 102 % of control | [11] 94 % of control | [12] 92 % of control | [13] 102 % of control | [14] 105 % of control | dose: 400.0 mg/kg/injection, schedule: Q04DX002 (ip), vehicle: Klucel (hydroxypropylcellulose) (HPC) 105 % of control

Nc1ccc(O)c2ncccc12
inactive: dose: 6.25 mg/kg/injection, schedule: Q01DX009 (ip), vehicle: saline 95 % of control | dose: 12.5 mg/kg/injection, schedule: Q01DX009 (ip), vehicle: saline 92 % of control | dose: 50.0 mg/kg/injection, schedule: Q01DX001 (ip), vehicle: saline 98 % of control

CC(O)CC(C)(C)c1ccccc1 (configuration not stated)
inactive: dose: 50.0 mg/kg/injection, schedule: Q01DX009 (ip), vehicle: saline with Tween-80 93 % of control | [2] 93 % of control | [6] 89 % of control

CC(=O)NCCc1[nH]cnc1N=Nc1ccc(Br)cc1
inactive: [1] 96 % of control | [5] 96 % of control | [8] 94 % of control

CCC(C)Nc1ccc(NS(=O)(=O)CCl)cc1 (configuration not stated)
inactive: dose: 25.0 mg/kg/injection, schedule: Q04DX002 (ip), vehicle: saline with Tween-80 97 % of control | dose: 50.0 mg/kg/injection, schedule: Q04DX002 (ip), vehicle: saline with Tween-80 106 % of control | [3] 100 % of control

COc1cccc(OC)c1CCO
inactive: dose: 50.0 mg/kg/injection, schedule: Q01DX001 (ip), vehicle: carboxymethylcellulose (CMC) 88 % of control | [15] 102 % of control | [16] 88 % of control | [17] 100 % of control

O=C(O)COc1ccc(Cl)c2ccccc12
inactive: [12] 96 % of control | [14] 100 % of control

COC(=O)c1cc(Br)ccc1OCC(=O)Nc1ccccc1
inactive: [4] 94 % of control | [7] 94 % of control | [10] 91 % of control

CCO/C=C1\SC(=S)N(c2ccccc2OC)C1=O
inactive: [2] 102 % of control | [6] 104 % of control | [9] 106 % of control

CCCCCCCC(=O)O[C@H]1[C@H]2[C@@H](CC1(C)C)C(=O)[C@]13O[C@H]1C(=O)[C@]1(CO1)[C@]23C
inactive: dose: 5.0 mg/kg/injection, schedule: Q01DX009 (ip), vehicle: saline with Tween-80 108 % of control | dose: 10.0 mg/kg/injection, schedule: Q01DX009 (ip), vehicle: saline with Tween-80 119 % of control | dose: 10.0 mg/kg/injection, schedule: Q04DX003 (ip), vehicle: saline with Tween-80 97 % of control | dose: 20.0 mg/kg/injection, schedule: Q01DX009 (ip), vehicle: saline with Tween-80 86 % of control | dose: 20.0 mg/kg/injection, schedule: Q04DX003 (ip), vehicle: saline with Tween-80 99 % of control

COc1ccc(NC(=O)Oc2ccccc2C(N)=O)c(Cl)c1
inactive: [12] 96 % of control | [14] 104 % of control

c1ccc(N(c2ccccc2)c2ccccc2)cc1
inactive: [11] 102 % of control | [2] 93 % of control | dose: 100.0 mg/kg/injection, schedule: Q04DX003 (ip), vehicle: Klucel (hydroxypropylcellulose) (HPC) 91 % of control | [4] 100 % of control | [13] 91 % of control | [6] 95 % of control | dose: 200.0 mg/kg/injection, schedule: Q04DX003 (ip), vehicle: Klucel (hydroxypropylcellulose) (HPC) 95 % of control | [7] 96 % of control | dose: 400.0 mg/kg/injection, schedule: Q01DX009 (ip), vehicle: Klucel (hydroxypropylcellulose) (HPC) 98 % of control | [9] 95 % of control | dose: 400.0 mg/kg/injection, schedule: Q04DX003 (ip), vehicle: Klucel (hydroxypropylcellulose) (HPC) 98 % of control | [10] 90 % of control

NCCSCC(N)C(=O)O (configuration not stated)
inactive: dose: 100.0 mg/kg/injection, schedule: Q04DX002 (ip), vehicle: saline 92 % of control | dose: 200.0 mg/kg/injection, schedule: Q04DX002 (ip), vehicle: saline 92 % of control | dose: 400.0 mg/kg/injection, schedule: Q04DX002 (ip), vehicle: saline 109 % of control

CSc1nc(N)c(N=Nc2ccc(S(=O)(=O)Nc3cc(C)nc(C)n3)cc2)c(=O)[nH]1
inactive: [15] 103 % of control | [16] 95 % of control | [17] 97 % of control
